Assay results reported in patent publication US20240335431A1, “1-H-PYRROLO[2,3-c]PYRIDINE COMPOUNDS” (Acerta Pharma B.V., priority 2023, published 2024).

These molecules were tested on HEL cells (assay: Proliferation assay, HEL control cell line (CellTiter-Glo, 7 days)). Details: Homo sapiens, HEL, 168 h.
Assay type: cell-based, human
Outline: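 Cells seeded at 125 (MOLM-13), 300 (MV4;11), 75 (OCI-AML3) or 200 (HEL) per well were exposed to 3.16-fold compound dilutions (0.1% DMSO) for 7 days at 37° C. Viability by CellTiter-Glo luminescence, normalized to DMSO (100%) and day-0 plate (0%); IC50 from one-site dose-response fit.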
C[C@@H]1COC[C@@H](C)N1C(=O)c1cc(F)ccc1-n1cc(C(=O)C2CCN(C(=O)[C@H]3N[C@@H]4CC[C@H]3C4)CC2)c2ccncc21 [Example 34, (1-((1R,3S,4S)-2-Azabicyclo[2.2.1]heptane-3-carbonyl)piperidin-4-yl)(1-(2-((3R,5R)-3,5-dimethylmorpholine-4-carbonyl)-4-fluorophenyl)-1H-pyrrolo[2,3-c]pyridin-3-yl)methanone] was tested, and the IC50 was > 10 µM. With Cc1c(C(=O)[C@@H]2CCN(C(=O)[C@@H]3CC[C@H](C)N3)[C@@H](C)C2)c2ccncc2n1-c1ccc(F)cc1C(=O)N(C(C)C)C(C)C (stereo in doubt) [Example 62, 5-Fluoro-N,N-diisopropyl-2-(2-methyl-3-((2S,4RS)-2-methyl-1-((2S,5S)-5-methylpyrrolidine-2-carbonyl)piperidine-4-carbonyl)-1H-pyrrolo[2,3-c]pyridin-1-yl)benzamide] the IC50 was > 10 µM. Cc1c(C(=O)[C@@H]2CCN(C(=O)[C@@H]3CC[C@@H](C)N3)[C@@H](C)C2)c2ccncc2n1-c1ccc(F)cc1C(=O)N(C(C)C)C(C)C (stereo in doubt) [Example 64, 5-Fluoro-N,N-diisopropyl-2-(2-methyl-3-((2S,4RS)-2-methyl-1-((2S,5R)-5-methylpyrrolidine-2-carbonyl)piperidine-4-carbonyl)-1H-pyrrolo[2,3-c]pyridin-1-yl)benzamide] was tested, and the IC50 was > 10 µM. For CC(C)N(C(=O)c1cc(F)ccc1-n1cc(C(=O)C2CN(C(=O)[C@H]3NC4CCC3CC4)C2)c2ccncc21)C(C)C [Example 6, (S)-2-(3-(1-(2-Azabicyclo[2.2.2]octane-3-carbonyl)azetidine-3-carbonyl)-1H-pyrrolo[2,3-c]pyridin-1-yl)-5-fluoro-N,N-diisopropylbenzamide], the IC50 was > 10 µM. In the case of C[C@@H]1CCC[C@H](C)N1C(=O)c1cc(F)ccc1-n1cc(C(=O)C2CCN(C(=O)[C@H]3N[C@@H]4CC[C@H]3C4)CC2)c2ccncc21 [Example 33, (1-((1R,3S,4S)-2-Azabicyclo[2.2.1]heptane-3-carbonyl)piperidin-4-yl)(1-(2-((2R,6S)-2,6-dimethylpiperidine-1-carbonyl)-4-fluorophenyl)-1H-pyrrolo[2,3-c]pyridin-3-yl)methanone], the IC50 is reported as > 10 µM. CCN(C(=O)c1cc(F)ccc1-n1c(C)c(C(=O)[C@@H]2CCN(C(=O)[C@@H]3CC[C@@H](C)N3)[C@@H](C)C2)c2ccncc21)C(C)C (stereo in doubt) [Example 65, N-Ethyl-5-fluoro-N-isopropyl-2-(2-methyl-3-((2S,4RS)-2-methyl-1-((2S,5R)-5-methylpyrrolidine-2-carbonyl)piperidine-4-carbonyl)-1H-pyrrolo[2,3-c]pyridin-1-yl)benzamide] was tested, and the IC50 was > 10 µM. In the case of CC(C)N(C(=O)c1cc(F)ccc1-n1cc(C(=O)C2CCN(C(=O)[C@H]3N[C@@H]4CC[C@H]3C4)CC2)c2c(F)cncc21)C(C)C.O=CO [Example 44, 2-(3-(1-((1R,3S,4S)-2-Azabicyclo[2.2.1]heptane-3-carbonyl)piperidine-4-carbonyl)-4-fluoro-1H-pyrrolo[2,3-c]pyridin-1-yl)-5-fluoro-N,N-diisopropylbenzamide 1·formic acid], the IC50 is reported as > 10 µM. With CC(C)(F)c1ncccc1-c1cc(F)ccc1-n1cc(C(=O)C2CN(C(=O)[C@H]3N[C@@H]4CC[C@H]3C4)C2)c2ccncc21 [Example 13, (1-((1R,3S,4S)-2-Azabicyclo[2.2.1]heptane-3-carbonyl)azetidin-3-yl)(1-(4-fluoro-2-(2-(2-fluoropropan-2-yl)pyridin-3-yl)phenyl)-1H-pyrrolo[2,3-c]pyridin-3-yl)methanone] the IC50 was > 10 µM. For CCN(C(=O)c1cc(F)ccc1-n1cc(C(=O)C2CCN(C(=O)[C@H]3N[C@H]4C[C@@H]3[C@@H](F)C4)CC2)c2ccncc21)C(C)C [Example 30, N-Ethyl-5-fluoro-2-(3-(1-((1S,3S,4S,5S)-5-fluoro-2-azabicyclo[2.2.1]heptane-3-carbonyl)piperidine-4-carbonyl)-1H-pyrrolo[2,3-c]pyridin-1-yl)-N-isopropylbenzamide], the IC50 was > 10 µM.
